This note sets out measurements from PubChem BioAssay (NCI).

Several values for one entry are separate records, joined by “and”; a condition that tells them apart may be missing. Identical values can stand only once.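 Method: 48-hour compound exposure of cells in 96-well plates, five concentrations, linear interpolation of endpoints. GI50 is the concentration that inhibits growth by half. TGI marks complete inhibition of growth.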

Holding throughout (test): growth of human tumour cells (NCI), 48 h
The subject of assay [1] is A498 renal.
In assay [2] the test system is HT29 colon.
In assay [3] the test system is KM12 colon.
Assay [4] relates to MOLT-4 leukemia.
Assay [5] has as its system SF-295 CNS.
For assay [6], the system named is SK-MEL-5 melanoma.
Assay [7] has as its system SK-OV-3 ovarian.
Assay [8] has as its system SNB-75 CNS.
Assay [9] deals with MDA-MB-435.

Consider `CC[C@@]1(O)C(=O)OCc2c1cc1n(c2=O)Cc2cc3c([N+](=O)[O-])c(O)ccc3nc2-1`, for which the GI50 in assay [1] is 915 nM; in assay [2], 2640 nM; in assay [3] it was 1680 nM; in [4], 22.7 nM; in [5] it was 0.155 µM; in assay [6], 459 nM. The GI50 in assay [7] was 0.614 µM; in assay [8], 151 nM. The TGI in [1] was 5.66 µM; in assay [2] it was over 100 µM; in [3] it was 20.9 µM; in assay [4], 0.188 µM; in assay [5] it was 2.2 µM; in [6], 2.39 µM. Also, the TGI in assay [7] came out at 25 µM; in assay [8], 1.12 µM.

In the case of `Cc1cc(Cl)ccc1NC(=O)C1C(=O)C(=O)N(c2ccc(Cl)cc2C)C1=O` (stereo not drawn), the TGI in assay [1], in [2], in assay [4], in assay [5], in assay [6] and in assay [7] was over 100 µM throughout. Also, in assay [8], the TGI is over 100 µM.

As to `[O-]c1ccccc1[C-]=Nc1ccccc1O.[O-]c1ccccc1[C-]=Nc1ccccc1O.[O]=[U]=[O]`, the GI50 was 22800 nM in assay [1]; 16000 nM in assay [2]; 6350 nM in assay [3]; 2950 nM in [4]; 16.4 µM in assay [5]; 8380 nM in assay [6]. In addition, the GI50 in assay [7] is 43 µM; in assay [8], 25100 nM. The TGI in [1] is 46.6 µM; in assay [2], 95.3 µM; in assay [3] it was over 100 µM; in assay [4] it was 65 µM; in assay [5] it was 43.5 µM; in assay [6] it was 43 µM. Moreover, the results for the TGI in assay [7] and in [8] were 71 µM and 64.5 µM, respectively.

Take `O=c1/c(=C/c2ccccc2O)sc2nc3ccccc3n12`: the TGI in assay [1] is over 100 µM; in assay [2] it was over 100 µM; in assay [4], 43.7 µM; in assay [5], over 100 µM; in assay [6], over 100 µM; in assay [8] it was over 100 µM.

Take `COC(=O)c1ccc(CS(=O)(=O)c2ccccc2)cc1`: the TGI in assay [2], in assay [3], in assay [4], in assay [5], in assay [6] and in assay [7] was over 100 µM in each case. The compound further returned a TGI in assay [8] of over 100 µM.

Consider `CC1(OCc2ccccc2)C(=O)N2C1N(C(=O)OCc1ccccc1)CC2(C)C` (stereo not drawn), for which the TGI is over 100 µM in assay [1]; over 100 µM in assay [2]; 77.4 µM in [4]; over 100 µM in [5]; 33.5 µM in assay [6]; over 100 µM in [8].

Consider `CC(=O)CC(=O)ON(C)C(C)=O`, for which the TGI in assay [2], in assay [3], in assay [4], in assay [5], in assay [6] and in assay [7] was over 100 µM in each case. The compound also returned a TGI in assay [8] of over 100 µM.

Turning to `O=C1C2c3[nH]c4ccccc4c3C3CCC(c4ccccc4)CC3C2C(=O)N1c1ccccc1` (stereo not drawn), the TGI in assay [2], in assay [3], in [4], in [5], in [6] and in assay [7] was over 100 µM in each case. The same compound gave a TGI in assay [8] of 55.9 µM.

In the case of `Clc1cc(Cl)cc(C2SCc3nc4ccccc4n32)c1` (stereo not drawn), the TGI in [2] was 25.2 µM; in assay [3], 37.3 µM; in assay [4], 57.2 µM; in assay [5] it was 29.3 µM; in assay [6] it was 25.7 µM; in assay [7], 63.8 µM. The TGI in assay [8] was over 100 µM.

Take `CCCCN1C(=O)C2c3[nH]c4ccccc4c3C3CCCCC3C2C1=O` (mixture of isomers): the TGI in assay [2] was over 100 µM; in [4], 19.4 µM; in [5], 23.7 µM; in [6], 90.3 µM; in [7], 47.7 µM; in [8] it was 21.9 µM.

As to `CC12CCC(=O)N1c1cc([N+](=O)[O-])ccc1N2` (stereo not drawn), the TGI in assay [1], in assay [2], in [3], in assay [4], in [5] and in [6] was over 100 µM in each case. Besides, the TGI in assay [7] and in [8] was over 100 µM in each case.

Consider `CN(C(=N)c1ccccc1)c1ccccc1`, for which the TGI in assay [2], in [3], in assay [4], in assay [5], in [6] and in assay [7] was over 100 µM each time. Besides, in assay [8], the TGI is over 100 µM.

`Cc1ccc2oc(=O)cc(CC(=O)O)c2c1`: the TGI in assay [1], in assay [2], in assay [3], in assay [4], in assay [5] and in [6] was over 100 µM throughout. Moreover, the TGI in assay [7] and in assay [8] was over 100 µM in each case.

`C[C@]12CC[C@H](OC(=O)Cc3ccc(N(CCCl)CCCl)cc3)CC1CC[C@@H]1C2CC[C@]2(C)NC(=O)CCC12` (stereo partly drawn): the TGI was 43.5 µM in assay [1]; 3.79 µM in assay [2]; 25.5 µM in [3]; 15.6 µM in [4]; 25.2 µM in [5]; 32.5 µM in assay [6]. The figures for the TGI in [7] and in assay [8] were 33.8 µM and 27.4 µM, respectively.

As to `CO[C@H](C(=O)O[C@H]1C(=O)N2CCC3CCC1C32C)c1ccccc1` (stereo partly drawn), the TGI in assay [2], in assay [3], in assay [4], in [5], in [6] and in assay [7] was over 100 µM in each case. The TGI in assay [8] is over 100 µM.

As to `CCOC(=O)C1Nc2ccc([N+](=O)[O-])cc2[C@H]2OCC[C@@H]12` (stereo partly drawn), the TGI in assay [1], in assay [2], in assay [3], in assay [4], in [5] and in assay [6] was over 100 µM each time. Besides, the TGI in [7] and in assay [8] was over 100 µM throughout.

On to `Nc1ncnc2c1ncn2C1OC(CO)CC1O` (stereo not drawn), for which the TGI in assay [3], in [4], in [5], in assay [6], in [7] and in assay [8] was over 100 µM throughout.

For the compound `C/C(=N\NC(=O)C[n+]1ccccc1)c1sc(-c2nc(C)c(/C(C)=N/NC(=O)C[n+]3ccccc3)s2)nc1C`, the TGI in assay [1], in [2], in assay [3], in [4], in assay [5] and in assay [6] was over 100 µM each time. Moreover, the TGI in assay [7] and in assay [8] was over 100 µM each time.

Take `CCOc1ccc(NC(=O)/C(Cc2nc3ccccc3[nH]c2=O)=N\O)cc1`: the TGI in assay [1], in assay [3], in [4], in assay [6], in [7] and in assay [8] was over 100 µM each time.

Consider `Clc1cc2nc[nH]c2cc1Cl`, for which the TGI in [1], in assay [2], in [3], in [4], in assay [5] and in [7] was over 100 µM throughout. In [8], the TGI turned out to be 83.9 µM.

On to `CC(=O)O[C@H]1CC[C@@]2(C)C(=CC[C@@H]3C2CC[C@]2(C)C(=O)NC(=O)CC32)C1` (stereo partly drawn), for which the TGI in [1], in [2], in assay [3], in assay [4], in [5] and in assay [6] was over 100 µM throughout. Further, the TGI in [7] and in [8] was over 100 µM each time.

Turning to `O=C1C[C@@H]2[C@@H](C=CC23CC3)N1O`, the TGI in [1], in assay [2], in assay [3], in [4], in assay [5] and in [6] was over 100 µM throughout. Also, the TGI in [7] and in [8] was over 100 µM each time.

Take `N#CC1=C(c2ccccc2)NN(Cc2ccccc2)C(c2ccc(Cl)cc2)CC1=O` (stereo not drawn): the TGI in assay [1] is over 100 µM; in [2] it was 38.7 µM; in assay [3], 82.1 µM; in assay [4] it was over 100 µM; in assay [5], over 100 µM; in assay [6] it was over 100 µM. This compound registered a TGI in assay [8] of 46 µM.

In the case of `CC(C)COC(=O)N1N=NC2C3CC(=O)C(O3)C21` (stereo not drawn), the TGI in [1], in [2], in [3], in assay [4], in assay [5] and in assay [6] was over 100 µM each time. Moreover, the TGI in assay [7] and in assay [8] was over 100 µM each time.

As to `CC(=O)OC1COC(n2c(O)c(N=Nc3ccc([N+](=O)[O-])cc3)c3cc(Br)c([N+](=O)[O-])cc32)C(OC(C)=O)C1OC(C)=O` (stereo not drawn), the TGI was over 100 µM in assay [2]; over 100 µM in assay [3]; over 100 µM in assay [4]; 67.1 µM in assay [5]; over 100 µM in assay [6]; over 100 µM in assay [7].

Consider `COc1ccc(C(=C(C#N)C#N)c2ccc(OC)cc2)cc1`, for which the TGI in [1], in assay [2], in assay [3], in assay [4] and in [5] was over 100 µM in each case.

Take `CC1OC(OC23C(=O)CC(C)(O)CC2(O)C=CC2=C3C(=O)c3ccc(C4CC(OC5CCC(OC6CC(O)C(O)C(C)O6)C(C)O5)C(O)C(C)O4)c(O)c3C2=O)CCC1O` (stereo not drawn): the TGI was 36.1 µM and 27.8 µM in assay [2]; 31.2 µM and 27.5 µM in [3]; over 100 µM in assay [4]; 30.4 µM and 9.87 µM in assay [5]; 33.3 µM and 29.7 µM in [6]; 86.2 µM and 46 µM in assay [7]. The TGI in assay [8] is 32.5 µM and 29.9 µM. Moreover, in [5], the GI50 was 16.5 µM and 3.06 µM.

As for `CN1CCN2c3ccccc3CC(C#N)(C#N)C2C1` (stereo not drawn), the TGI in assay [1], in assay [2], in assay [3], in assay [4], in [5] and in assay [6] was over 100 µM throughout. The TGI in assay [7] and in assay [8] was over 100 µM each time.

As for `COc1ccc2nc(-c3ccc(Cl)cc3)cc(-c3nnc(SCC(=O)Nc4ccc(/C(C)=N\O)cc4)o3)c2c1`, the GI50 in [1] was 2940 nM; in assay [2] it was 1400 nM; in [3] it was 1530 nM; in assay [9], 1260 nM; in assay [4] it was 2180 nM; in [5], 1.09 µM. For the same compound, the GI50 in [6] was 1710 nM; in assay [7], 6.23 µM; in [8] it was 1080 nM. Further, the TGI was 11 µM in assay [1]; 5.54 µM in assay [2]; 5.46 µM in assay [3]; 4.08 µM in [9]; over 50 µM in assay [4]; 3.08 µM in [5]. Besides, the TGI stood at 7.52 µM in [6], 18.7 µM in assay [7] and 6.34 µM in assay [8].

For `OCC(O)C(O)C(O)c1nn[nH]n1` (stereo not drawn), the TGI in assay [2], in assay [3], in [4], in assay [5], in [6] and in assay [7] was over 100 µM throughout. This compound also showed a TGI in assay [8] of over 100 µM.

For `CC(C)(C)c1cc(O)c2c(c1O)C(=O)CCC2`, the TGI in assay [1] was over 100 µM; in [2], over 100 µM; in [4], 53.8 µM; in [5], 99.2 µM; in [6] it was 39.2 µM; in assay [7], over 100 µM. Further, in assay [8], the TGI is over 100 µM.
